Assay results: ChEMBL document CHEMBL5576128, “Discovery of Potent Isoquinolinequinone N-Oxides to Overcome Cancer Multidrug Resistance” (J Med Chem, 2024)
The source made the active and inactive calls.

Tests used:
[1] = test system: NCI-H460; assay: Induction of ROS accumulation in human NCI-H460 cells at 0.7 to 5 uM incubated for 6 hrs by CM-H2DCFDA staining based flow cytometry analysis; type: functional, cell-based; settings: dose 0.7-5 µM
[2] = test system: NCI-H460; assay: Inhibition of cell growth in human NCI-H460 cells incubated for 48 hrs by trypan blue exclusion assay; type: functional, cell-based
[3] = test system: MRC5; assay: Cytotoxicity against human MRC5 cells at less than 0.5 uM incubated for 48 hrs by SRB method; type: toxicity, cell-based; settings: mrc5, 48 h
[4] = test system: MCF-12A; assay: Cytotoxicity against human MCF-12A cells at 1 to 5 uM incubated for 48 hrs by SRB method; type: toxicity, cell-based; settings: dose 1-5 µM
[5] = test system: NCI-H460; assay: Inhibition of cell proliferation in human NCI-H460 cells at 0.35 to 0.7 uM incubated for 48 hrs by BrdU incorporation assay; type: functional, cell-based; settings: dose 0.35-0.7 µM
[6] = test system: NCI-H460; assay: Induction of cell cycle arrest in human NCI-H460 cells assessed as increase in G1 phase cells at 0.35 to 0.7 uM incubated for 48 hrs by propidium iodide staining based flow cytometry analysis; type: functional; settings: dose 0.35-0.7 µM
[7] = test system: NCI-H460; assay: Induction of cell cycle arrest in human NCI-H460 cells assessed as decrease in S phase cells at 0.35 to 0.7 uM incubated for 48 hrs by propidium iodide staining based flow cytometry analysis; type: functional; settings: dose 0.35-0.7 µM
[8] = test system: NCI-H460; assay: Induction of cell cycle arrest in human NCI-H460 cells assessed as increase in sub-G1 phase cells at 0.35 to 0.7 uM incubated for 48 hrs by propidium iodide staining based flow cytometry analysis; type: functional; settings: dose 0.35-0.7 µM
[9] = test system: NCI-H460; assay: Induction of apoptosis in human NCI-H460 cells at 0.35 to 0.7 uM incubated for 48 hrs by Annexin-V FITC/propidium iodide staining based flow cytometry analysis; type: functional, cell-based; settings: dose 0.35-0.7 µM
[10] = test system: NCI-H460; assay: Effect on PARP-1 expression in human NCI-H460 cells at 0.35 to 0.7 uM incubated for 48 hrs by Western blotting analysis; type: functional, cell-based; settings: dose 0.35-0.7 µM
[11] = test system: NCI-H460; assay: Downregulation of procaspase-3 expression in human NCI-H460 cells at 0.35 to 0.7 uM incubated for 48 hrs by Western blotting analysis; type: functional, cell-based; settings: dose 0.35-0.7 µM
[12] = test system: NCI-H460; assay: Upregulation of cyclin D1 expression in human NCI-H460 cells at 0.35 to 0.7 uM incubated for 48 hrs by Western blotting analysis; type: functional, cell-based; settings: dose 0.35-0.7 µM
[13] = test system: NCI-H460; assay: Upregulation of p53 expression in human NCI-H460 cells at 0.35 to 0.7 uM incubated for 48 hrs by Western blotting analysis; type: functional, cell-based; settings: dose 0.35-0.7 µM
[14] = test system: NCI-H460; assay: Upregulation of p21 expression in human NCI-H460 cells at 0.7 uM incubated for 48 hrs by Western blotting analysis; type: functional, cell-based
[15] = test system: NCI-H460; assay: Effect on p62 expression in human NCI-H460 cells at 0.35 to 0.7 uM incubated for 48 hrs by Western blotting analysis; type: functional, cell-based; settings: dose 0.35-0.7 µM
[16] = test system: NCI-H460; assay: Effect on LC3-I expression in human NCI-H460 cells at 0.35 to 0.7 uM incubated for 48 hrs by Western blotting analysis; type: functional, cell-based; settings: dose 0.35-0.7 µM
[17] = test system: NCI-H460; assay: Effect on LC3-II expression in human NCI-H460 cells at 0.35 to 0.7 uM incubated for 48 hrs by Western blotting analysis; type: functional, cell-based; settings: dose 0.35-0.7 µM
[18] = test system: NCI-H460; assay: Upregulation of TP53BP1 expression in human NCI-H460 cells at high concentration incubated for 48 hrs by Western blotting analysis; type: functional, cell-based
[19] = test system: NCI-H460; assay: Upregulation of p-histone H2A.X expression in human NCI-H460 cells at high concentration incubated for 48 hrs by Western blotting analysis; type: functional, cell-based
[20] = test system: NCI-H460; assay: Induction of DNA damage in human NCI-H460 cells at 0.7 uM incubated for 48 hrs by Western blotting analysis; type: functional, cell-based
[21] = molecular target: ATP-dependent translocase ABCB1 (Homo sapiens, UniProt P08183); assay: Inhibition of P-gp mediated drug efflux in human NCI-H460 cells assessed as accumulation of rhodamine-123 accumulation at 10 to 20 uM incubated for 1 hr by flow cytometry analysis; type: cell-based; settings: nci-h460, 1 h, dose 10-20 µM
Sequence of ATP-dependent translocase ABCB1 (P08183 whole entry): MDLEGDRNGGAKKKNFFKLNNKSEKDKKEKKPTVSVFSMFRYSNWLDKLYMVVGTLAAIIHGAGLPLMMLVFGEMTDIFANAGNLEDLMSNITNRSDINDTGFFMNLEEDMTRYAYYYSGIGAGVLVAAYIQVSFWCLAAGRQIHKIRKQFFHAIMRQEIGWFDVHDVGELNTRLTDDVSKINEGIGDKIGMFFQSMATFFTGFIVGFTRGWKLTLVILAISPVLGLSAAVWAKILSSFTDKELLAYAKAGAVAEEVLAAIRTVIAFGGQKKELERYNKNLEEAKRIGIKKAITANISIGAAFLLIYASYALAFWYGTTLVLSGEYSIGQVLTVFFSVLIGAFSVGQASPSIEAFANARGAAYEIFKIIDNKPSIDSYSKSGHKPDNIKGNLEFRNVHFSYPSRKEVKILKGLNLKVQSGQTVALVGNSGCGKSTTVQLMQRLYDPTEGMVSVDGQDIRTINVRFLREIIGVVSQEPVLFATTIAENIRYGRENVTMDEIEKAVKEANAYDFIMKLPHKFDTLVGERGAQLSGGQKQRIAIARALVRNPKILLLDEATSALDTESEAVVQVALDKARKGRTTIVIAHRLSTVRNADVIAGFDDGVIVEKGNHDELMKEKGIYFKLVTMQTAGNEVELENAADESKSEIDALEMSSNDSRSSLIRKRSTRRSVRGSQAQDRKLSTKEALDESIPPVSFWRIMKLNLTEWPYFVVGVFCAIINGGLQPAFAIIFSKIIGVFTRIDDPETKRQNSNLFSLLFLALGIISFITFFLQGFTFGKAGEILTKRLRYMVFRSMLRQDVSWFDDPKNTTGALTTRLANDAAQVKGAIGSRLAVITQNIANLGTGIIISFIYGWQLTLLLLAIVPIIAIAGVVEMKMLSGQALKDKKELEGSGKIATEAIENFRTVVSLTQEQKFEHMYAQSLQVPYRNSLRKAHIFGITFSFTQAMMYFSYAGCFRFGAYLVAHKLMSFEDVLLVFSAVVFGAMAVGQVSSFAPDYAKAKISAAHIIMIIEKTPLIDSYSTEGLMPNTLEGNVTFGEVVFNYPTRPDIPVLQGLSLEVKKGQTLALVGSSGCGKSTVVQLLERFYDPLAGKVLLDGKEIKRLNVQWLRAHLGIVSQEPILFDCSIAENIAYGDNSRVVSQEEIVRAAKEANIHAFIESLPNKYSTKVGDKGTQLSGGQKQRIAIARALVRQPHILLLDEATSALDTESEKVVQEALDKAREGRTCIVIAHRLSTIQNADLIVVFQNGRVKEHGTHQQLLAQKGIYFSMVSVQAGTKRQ

[22] = test system: NCI-H460; assay: Effect on human NCI-H460 cells […] assessed as change in diameter at 0.35 to 0.7 uM incubated for 48 hrs; type: functional, cell-based; settings: dose 0.35-0.7 µM
[23] = test system: NCI-H460; assay: Effect on human NCI-H460 cells […] assessed as change in compactness at 0.35 to 0.7 uM incubated for 48 hrs; type: functional, cell-based; settings: dose 0.35-0.7 µM
[24] = test system: NCI-H460; assay: Effect on human NCI-H460 cells […] assessed as change in circularity at 0.35 to 0.7 uM incubated for 48 hrs; type: functional, cell-based; settings: dose 0.35-0.7 µM
[25] = test system: Doxorubicin-resistant NCI-H460/R; assay: Effect on human Doxorubicin-resistant NCI-H460/R cells […] assessed as change in compactness at 0.35 to 0.7 uM incubated for 48 hrs; type: functional, cell-based; settings: dose 0.35-0.7 µM
[26] = test system: Doxorubicin-resistant NCI-H460/R; assay: Effect on human Doxorubicin-resistant NCI-H460/R cells […] assessed as change in diameter at 0.35 to 0.7 uM incubated for 48 hrs; type: functional, cell-based; settings: dose 0.35-0.7 µM
[27] = test system: Doxorubicin-resistant NCI-H460/R; assay: Effect on human Doxorubicin-resistant NCI-H460/R cells […] assessed as change in circularity at 0.35 to 0.7 uM incubated for 48 hrs; type: functional, cell-based; settings: dose 0.35-0.7 µM
[28] = test system: DLD-1; assay: Effect on human DLD-1 cells […] assessed as change in diameter at 0.35 to 0.7 uM incubated for 48 hrs; type: functional, cell-based; settings: dose 0.35-0.7 µM
[29] = test system: DLD-1; assay: Effect on human DLD-1 cells […] assessed as change in compactness at 0.35 to 0.7 uM incubated for 48 hrs; type: functional, cell-based; settings: dose 0.35-0.7 µM
[30] = test system: DLD-1; assay: Effect on human DLD-1 cells […] assessed as change in circularity at 0.35 to 0.7 uM incubated for 48 hrs; type: functional, cell-based; settings: dose 0.35-0.7 µM
[31] = test system: Paclitaxel-resistant DLD1-TxR cells; assay: Effect on human Paclitaxel-resistant DLD1-TxR cells […] assessed as change in diameter at 0.35 to 0.7 uM incubated for 48 hrs; type: functional, cell-based; settings: dose 0.35-0.7 µM
[32] = test system: Paclitaxel-resistant DLD1-TxR cells; assay: Effect on human Paclitaxel-resistant DLD1-TxR cells […] assessed as change in compactness at 0.35 to 0.7 uM incubated for 48 hrs; type: functional, cell-based; settings: dose 0.35-0.7 µM
[33] = test system: Paclitaxel-resistant DLD1-TxR cells; assay: Effect on human Paclitaxel-resistant DLD1-TxR cells […] assessed as change in circularity at 0.35 to 0.7 uM incubated for 48 hrs; type: functional, cell-based; settings: dose 0.35-0.7 µM
[34] = test system: NCI-H460; assay: Inhibition of human NCI-H460 cells spheroid viability by CellTiter-Glo 3D viability assay; type: functional, cell-based
[35] = test system: Doxorubicin-resistant NCI-H460/R; assay: Inhibition of human Doxorubicin-resistant NCI-H460/R cells spheroid viability by CellTiter-Glo 3D viability assay; type: functional, cell-based
[36] = test system: DLD-1; assay: Inhibition of human DLD-1 cells spheroid viability by CellTiter-Glo 3D viability assay; type: functional, cell-based
[37] = test system: Paclitaxel-resistant DLD1-TxR cells; assay: Inhibition of human Paclitaxel-resistant DLD1-TxR cells spheroid viability by CellTiter-Glo 3D viability assay; type: functional, cell-based
[38] = test system: Doxorubicin-resistant NCI-H460/R; assay: Inhibition of human Doxorubicin-resistant NCI-H460/R cells […] assessed as reduction in viability at 2 uM incubated for 48 hrs; type: functional, cell-based
[39] = test system: NCI/ADR-RES; assay: Potency index, ratio of doxorubicin GI50 to test compound GI50 for human NCI/ADR-RES cells; type: functional
[40] = test system: NCI-H460; assay: Inhibition of cell proliferation in human NCI-H460 cells at 50 nM incubated for 48 hrs by BrdU incorporation assay; type: functional, cell-based
[41] = test system: NCI-H460; assay: Inhibition of human NCI-H460 cells […] at 50 nM incubated for 48 hrs; type: functional, cell-based

COC(=O)c1c2c(c[n+]([O-])c1C)C(=O)C=C(NCc1ccccc1)C2=O
Non-Toxic: Activity [3] | Activity [4]
active: Activity [1] | inhibition [2] | inhibition [5] | Activity [6] | Activity [7] | Activity [8] | Activity [11] | Activity [12] | Activity [14] | Activity [18] | Activity [19] | inhibition [34] | inhibition [35] | inhibition [36] | inhibition [37]
inactive: Activity [9] | Activity [10] | Activity [13] | Activity [15] | Activity [16] | Activity [17] | Activity [20] | Activity [22] | Activity [23] | Activity [24] | Activity [25] | Activity [26] | Activity [27] | Activity [28] | Activity [29] | Activity [30] | Activity [31] | Activity [32] | Activity [33]
Active: inhibition (INH) [21]

COc1cc([C@@H]2c3cc4c(cc3[C@@H](O[C@@H]3O[C@@H]5CO[C@@H](C)O[C@H]5[C@H](O)[C@H]3O)[C@H]3COC(=O)[C@H]23)OCO4)cc(OC)c1O
inactive: Activity [38]

COC(=O)c1c2c(c(C)[n+]([O-])c1C)C(=O)C=C(NCc1ccccc1)C2=O
40: RatioGI50 [39]

COc1cccc2c1C(=O)c1c(O)c3c(c(O)c1C2=O)C[C@@](O)(C(=O)CO)C[C@@H]3O[C@H]1C[C@H](N)[C@H](O)[C@H](C)O1
active: inhibition [40]
inactive: inhibition [41]
